Experiments:
sindbis virus = test: Antiviral CPE reduction assay, Sindbis virus in Huh-7; type: cell-based; conditions: Huh-7 cells, 100 CCID50, MTS
in vitro [1] = conditions: dog
[2] = system: yellow fever virus (YFV 17D); test: microbe, parasite or virus in culture; type: cell-based; conditions: Huh-7, read-out: Antiviral Activity (EC50/μM) YFV 17D Huh-7
[3] = system: human coronavirus HCoV-229E; test: organism not typed; type: cell-based; conditions: HEL 299 cells, 100 CCID50, MTS; read-out: Antiviral Activity (EC50/μM) HCoV 229E HEL 299
[4] = system: influenza B (B/Ned/537/05); test: Antiviral CPE reduction assay, influenza B in MDCK; type: cell-based; conditions: Influenza B virus; MDCK cells, 100 CCID50, MTS
[5] = system: influenza A/H1N1 (A/Ned/378/05); test: Antiviral CPE reduction assay, influenza A/H1N1 in MDCK; type: cell-based; conditions: Influenza A virus, MDCK cells, 100 CCID50, MTS
Zika virus (Mr776) = test: Antiviral CPE reduction assay, Zika virus in Huh-7; type: cell-based; conditions: Huh-7 cells, 100 CCID50, MTS
[6] = system: human coronavirus HCoV-NL63; test: Antiviral CPE reduction assay, HCoV-NL63 in Huh-7; type: cell-based; conditions: Huh-7 cells, 100 CCID50, MTS
[7] = system: respiratory syncytial virus A (Long); test: Antiviral CPE reduction assay, RSV A in HEL 299; type: cell-based; conditions: human respiratory syncytial virus; HEL 299 cells, 100 CCID50, MTS
[8] = system: influenza A/H3N2 (A/HK/7/87); test: Antiviral CPE reduction assay, influenza A/H3N2 in MDCK; type: cell-based; conditions: Influenza A virus, MDCK cells, 100 CCID50, MTS
[9] = system: human coronavirus HCoV-OC43; test: microbe, parasite or virus in culture; type: cell-based; conditions: Betacoronavirus 1, OC43; HEL 299 cells, 100 CCID50, MTS; read-out: Antiviral Activity (EC50/μM) HCoV OC43 HEL 299
in vitro [10] = conditions: human
[11] = system: herpes simplex virus-1 (HSV-1 KOS); test: Antiviral CPE reduction assay, HSV-1 KOS in HEL 299; type: cell-based; conditions: Human alphaherpesvirus 1; HEL 299 cells, 100 CCID50, MTS
in vitro [12] = conditions: human; remark: listed apart in the source
[13] = system: DND-41, acute lymphoblastic leukemia; test: Proliferation assay (MTS, 72 h), DND-41; type: cell-based, human; conditions: Homo sapiens, DND41
Source text: (§1) Human cancer cells used in this manuscript, namely Capan-1, HCT-116, NCI-H460, LN-229, HL-60, K-562, and Z-138, were acquired from the American Type Culture Collection (ATCC, Manassas, VA, USA), while the DND-41 cell line was purchased from the Deutsche Sammlung von Mikroorganismen und Zellkulturen (DSMZ Leibniz-Institut, Braunschweig, Germany). Culture media were purchased from Gibco Life Technologies, Merelbeke, Belgium, and supplemented with 10% fetal bovine serum (HyClone, Cytiva, Marlborough, MA, USA). Vincristine and docetaxel, which were used as the reference inhibitors, were purchased from Selleckchem (Munich, Germany). Stock solutions were prepared in DMSO.
(§2) Adherent cell lines LN-229, HCT-116, and NCI-H460 and Capan-1 cells were seeded at a density between 500 and 1500 cells per well, in 384-well tissue culture plates (Greiner, Kremsmünster, Austria). After overnight incubation, the cells were treated with seven different concentrations of the test compounds, ranging from 100 to 0.006 µM.
(§3) Suspension cell lines HL-60, K-562, Z-138, and DND-41 were seeded at densities ranging from 2500 to 5500 cells per well in 384-well culture plates containing the test compounds at the same concentration points. The cells were incubated for 72 h with the compounds and were then analyzed using the CellTiter 96® AQueous One Solution Cell Proliferation Assay (MTS) reagent (Promega, Madison, WI, USA) according to the manufacturer’s instructions. […] The compounds were tested in two independent experiments.

[14] = system: HCT-116, colorectal carcinoma; test: Proliferation assay (MTS, 72 h), HCT-116; type: cell-based, human; conditions: Homo sapiens, HCT-116
Source text: as §1, §2, §3

[15] = system: Capan-1, pancreatic adenocarcinoma; test: Proliferation assay (MTS, 72 h), Capan-1; type: cell-based, human; conditions: Homo sapiens, CAPAN-1
Source text: as §1, §2, §3

NCI-H460, lung carcinoma = test: Proliferation assay (MTS, 72 h), NCI-H460; type: cell-based, human; conditions: Homo sapiens, NCI-H460
Source text: as §1, §2, §3

[16] = system: HL-60, acute myeloid leukemia; test: Proliferation assay (MTS, 72 h), HL-60; type: cell-based, human; conditions: Homo sapiens, HL-60
Source text: as §1, §2, §3

[17] = system: K-562, chronic myeloid leukemia; test: Proliferation assay (MTS, 72 h), K-562; type: cell-based, human; conditions: Homo sapiens, K562
Source text: as §1, §2, §3

LN-229, glioblastoma = test: Proliferation assay (MTS, 72 h), LN-229; type: cell-based, human; conditions: Homo sapiens, LN-229
Source text: as §1, §2, §3

[18] = system: Z-138, non-Hodgkin lymphoma; test: Proliferation assay (MTS, 72 h), Z-138; type: cell-based, human; conditions: Homo sapiens, Z-138
Source text: as §1, §2, §3

Row | Compound | EC50 (sindbis virus) [µM] | CC50 (in vitro [1]) [µM] | EC50 [2] [µM] | EC50 [3] [µM] | EC50 [4] [µM] | EC50 [5] [µM] | EC50 (Zika virus (Mr776)) [µM] | EC50 [6] [µM] | EC50 [7] [µM] | EC50 [8] [µM] | EC50 [9] [µM] | CC50 (in vitro [10]) [µM] | EC50 [11] [µM] | CC50 (in vitro [12]) [µM] | IC50 [13] [µM] | IC50 [14] [µM] | IC50 [15] [µM] | IC50 (NCI-H460, lung carcinoma) [µM] | IC50 [16] [µM] | IC50 [17] [µM] | other results
1 | NC(=O)c1ncn([C@@H]2O[C@H](CO)[C@@H](O)[C@H]2O)n1 [Ribavirin, ribavirin, reference compound] | 148 | 67 | > 250 | 82.6 | 2.8 | 10.5 | > 250 | > 250 | 10.8 | 4 | – | – | – | – | – | – | – | – | – | – | –
2 | CC(C)Cn1c(N)nc2ccccc21 [Compound 17, 2-amino-1-isobutylbenzimidazole] | > 100 | > 100 | > 100 | 78.9 | > 100 | > 100 | > 100 | > 100 | > 100 | > 100 | > 100 | > 100 | > 100 | > 100 | – | – | – | – | – | – | –
3 | Cn1c(N)nc2ccc(C#N)cc21 [Compound 22, 2-amino-6-cyano-1-methylbenzimidazole] | > 100 | > 100 | > 100 | > 100 | > 100 | > 100 | 46.4 | > 100 | 78.7 | > 100 | > 100 | > 100 | > 100 | > 100 | – | – | – | – | – | – | –
4 | CC(C)Cn1c(/N=C/c2ccc(N(C)C)cc2)nc2ccccc21 [Compound 28, (E)-4-(((1-Isobutyl-1H-benzo[d]imidazol-2-yl)imino)methyl)-N,N-dimethylaniline] | – | – | – | – | – | – | – | – | – | – | – | – | – | – | > 100 | 15.2 | > 100 | > 100 | > 100 | > 100 | IC50 (LN-229, glioblastoma): > 100 µM; IC50 [18]: > 100 µM; melting point: 277 to 279 °C
5 | CC(C)Cn1c(/N=C/c2ccc(N(C)C)cc2)nc2ccc(C#N)cc21 [Compound 29, (E)-2-((4-(Dimethylamino)benzylidene)amino)-1-isobutyl-1H-benzo[d]imidazole-6-carbonitrile] | > 100 | > 100 | > 100 | > 100 | > 100 | 94.1 | > 100 | 79.8 | > 100 | > 100 | > 100 | > 100 | > 100 | > 100 | > 100 | > 100 | > 100 | > 100 | 42.8 | > 100 | IC50 (LN-229, glioblastoma): > 100 µM; IC50 [18]: > 100 µM; melting point: 283 to 285 °C
6 | O=c1[nH]c(=O)n([C@H]2C[C@H](O)[C@@H](CO)O2)cc1/C=C/Br [BVDU, brivudine, reference compound] | – | – | – | – | – | – | – | – | – | – | – | > 100 | 0.05 | – | – | – | – | – | – | – | –
7 | CCC(CC)COC(=O)[C@H](C)N[P@](=O)(OC[C@H]1O[C@@](C#N)(c2ccc3c(N)ncnn23)[C@H](O)[C@@H]1O)Oc1ccccc1 [Remdesivir, remdesivir, reference compound] | > 10 | – | 6.2 | 0.06 | – | – | 0.7 | 0.03 | 0.03 | – | 0.06 | > 10 | – | > 10 | – | – | – | – | – | – | –
8 | CN(C)c1ccc(/C=N/c2nc3ccc(C#N)cc3n2C)cc1 [Compound 34, (E)-2-((4-(Dimethylamino)benzylidene)amino)-1-methyl-1H-benzo[d]imidazole-6-carbonitrile] | > 100 | > 100 | > 100 | > 100 | 83.5 | > 100 | > 100 | 82.8 | > 100 | > 100 | > 100 | > 100 | > 100 | > 100 | > 100 | > 100 | > 100 | > 100 | > 100 | > 100 | IC50 (LN-229, glioblastoma): > 100 µM; IC50 [18]: > 100 µM
9 | CC(=O)N[C@H]1[C@H]([C@H](O)[C@H](O)CO)OC(C(=O)O)=C[C@@H]1N=C(N)N [Zanamivir, zanamivir, reference compound] | – | > 100 | – | – | 0.05 | 0.1 | – | – | – | 16.8 | – | – | – | – | – | – | – | – | – | – | –
10 | CCN(CC)c1ccc(/C=N/c2nc3ccc(C#N)cc3n2C)c(O)c1 [Compound 36, (E)-2-((4-(Diethylamino)-2-hydroxybenzylidene)amino)-1-methyl-1H-benzo[d]imidazole-6-carbonitrile] | > 100 | > 100 | > 100 | 88.4 | > 100 | > 100 | > 100 | > 100 | > 100 | > 100 | > 100 | > 100 | > 100 | > 100 | 41.4 | > 100 | > 100 | > 100 | > 100 | > 100 | IC50 (LN-229, glioblastoma): > 100 µM; IC50 [18]: > 100 µM
11 | CN(C)c1ccc(/C=N/c2nc3ccc(C#N)cc3n2-c2ccccc2)cc1 [Compound 39, (E)-2-((4-(Dimethylamino)benzylidene)amino)-1-phenyl-1H-benzo[d]imidazole-6-carbonitrile] | – | – | – | – | – | – | – | – | – | – | – | – | – | – | > 100 | > 100 | > 100 | > 100 | > 100 | > 100 | IC50 (LN-229, glioblastoma): > 100 µM; IC50 [18]: > 100 µM; melting point: 247 to 251 °C
12 | CC(N)C12CC3CC(CC(C3)C1)C2 (stereo not drawn) [Rimantadine, rimantadine, reference compound] | – | > 100 | – | – | > 100 | 5 | – | – | – | 0.05 | – | – | – | – | – | – | – | – | – | – | –
13 | Cn1c(N)nc2ccccc21 [Compound 18, 2-amino-1-methylbenzimidazole] | > 100 | > 100 | > 100 | > 100 | > 100 | > 100 | 43.1 | > 100 | > 100 | > 100 | > 100 | > 100 | > 100 | > 100 | – | – | – | – | – | – | –
14 | CCCCCCn1c(/N=C/c2ccc(N(C)C)cc2)nc2ccc(C#N)cc21 [Compound 43, (E)-2-((4-(Dimethylamino)benzylidene)amino)-1-hexyl-1H-benzo[d]imidazole-6-carbonitrile] | – | – | – | – | – | – | – | – | – | – | – | – | – | – | > 100 | > 100 | > 100 | 91.6 | 33.5 | > 100 | IC50 (LN-229, glioblastoma): > 100 µM; IC50 [18]: > 100 µM; melting point: 165 to 170 °C

— article PMC10180076, “Novel Biologically Active N-Substituted Benzimidazole Derived Schiff Bases: Design, Synthesis, and Biological Evaluation” (Molecules, 2023)
